Values joined by “and” are separate entries in the source; they are usually repeats but may differ in a detail not shown here. Equal entries are not always repeated. Inconclusive results and toxic doses are left out.
System: P388 leukemia ip, CD2F1 mice, survival T/C
Assay: NCI In Vivo Anticancer Drug Screen. Data for tumor model P388 Leukemia (intraperitoneal) in CD2F1 (CDF1) mice
Conditions: endpoint: median survival time, higher = longer survival
Procedure, shortened: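 Mice carrying the transplanted tumor received test compound or vehicle. Survival was recorded in each group, and the value is the treated-group measurement divided by that of the vehicle-treated control group.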

[1] = dose: 50.0 mg/kg/injection, schedule: Q01DX009 (ip), vehicle: Klucel (hydroxypropylcellulose) (HPC)
[2] = dose: 100.0 mg/kg/injection, schedule: Q01DX009 (ip), vehicle: Klucel (hydroxypropylcellulose) (HPC)
[3] = dose: 200.0 mg/kg/injection, schedule: Q01DX009 (ip), vehicle: Klucel (hydroxypropylcellulose) (HPC)
[4] = dose: 50.0 mg/kg/injection, schedule: Q01DX009 (ip), vehicle: saline with Tween-80
[5] = dose: 100.0 mg/kg/injection, schedule: Q01DX009 (ip), vehicle: saline with Tween-80
[6] = dose: 200.0 mg/kg/injection, schedule: Q01DX009 (ip), vehicle: saline with Tween-80
[7] = dose: 50.0 mg/kg/injection, schedule: Q01DX005 (ip), vehicle: Klucel (hydroxypropylcellulose) (HPC)
[8] = dose: 100.0 mg/kg/injection, schedule: Q01DX005 (ip), vehicle: Klucel (hydroxypropylcellulose) (HPC)
[9] = dose: 60.0 mg/kg/injection, schedule: Q01DX005 (ip), vehicle: saline with Tween-80
[10] = dose: 120.0 mg/kg/injection, schedule: Q01DX005 (ip), vehicle: saline with Tween-80
[11] = dose: 240.0 mg/kg/injection, schedule: Q01DX005 (ip), vehicle: saline with Tween-80
[12] = dose: 12.5 mg/kg/injection, schedule: Q01DX005 (ip), vehicle: saline with Tween-80
[13] = dose: 25.0 mg/kg/injection, schedule: Q01DX005 (ip), vehicle: saline with Tween-80
[14] = dose: 50.0 mg/kg/injection, schedule: Q01DX005 (ip), vehicle: saline with Tween-80
[15] = dose: 50.0 mg/kg/injection, schedule: Q04DX003 (ip), vehicle: saline
[16] = dose: 100.0 mg/kg/injection, schedule: Q04DX003 (ip), vehicle: saline
[17] = dose: 50.0 mg/kg/injection, schedule: Q01DX009 (ip), vehicle: saline
[18] = dose: 100.0 mg/kg/injection, schedule: Q01DX005 (ip), vehicle: saline with Tween-80
[19] = dose: 200.0 mg/kg/injection, schedule: Q01DX005 (ip), vehicle: saline with Tween-80

Cc1ccc(N=Cc2ccccc2O)c(Br)c1
T/C [1]: 88 % of control | T/C [2]: 89 % of control | T/C [3]: 98 % of control

O=C1C=C2SCCN2C(=O)C1
T/C (dose: 25.0 mg/kg/injection, schedule: Q01DX009 (ip), vehicle: saline with Tween-80): 101 % of control | T/C [4]: 92 % of control | T/C [5]: 97 % of control | T/C [6]: 99 % of control

COc1c2ccoc2cc2oc(=O)ccc12
T/C [7]: 102 % of control | T/C [8]: 96 % of control | T/C (dose: 200.0 mg/kg/injection, schedule: Q01DX005 (ip), vehicle: Klucel (hydroxypropylcellulose) (HPC)): 93 % of control

N#Cc1ccccc1NC(=O)Nc1ccc(Cc2ccc(NC(=O)Nc3ccccc3C#N)cc2)cc1
T/C [9]: 97 % of control | T/C [10]: 97 % of control | T/C [11]: 93 % of control

COC1OC2COC(c3ccccc3)OC2C(N=Cc2ccccc2)C1O (configuration not stated)
T/C [9]: 104 % of control | T/C [10]: 103 % of control | T/C [11]: 100 % of control

C/C(=N\NC(=S)N1CCCCC1C)c1nccs1 (configuration not stated)
T/C [12]: 100 % of control and 108 % of control | T/C [13]: 104 % of control and 111 % of control | T/C [14]: 112 % of control and 118 % of control

Cc1cnc(N)c(C(=O)O)n1
T/C [7]: 102 % of control | T/C [8]: 90 % of control

COC(=O)[C@@]12OC[C@]34C([C@@H](O)C1O)[C@@]1(C)CC(=O)C(O)=C(C)C1C[C@H]3OC(=O)[C@H](OC(=O)c1cccc(Cl)c1)[C@H]42 (some centres not stated)
T/C (dose: 0.25 mg/kg/injection, schedule: Q01DX005 (ip), vehicle: DMSO): 119 % of control | T/C (dose: 0.5 mg/kg/injection, schedule: Q01DX005 (ip), vehicle: DMSO): 112 % of control | T/C (dose: 1.0 mg/kg/injection, schedule: Q01DX005 (ip), vehicle: DMSO): 121 % of control and 93 % of control | T/C (dose: 2.0 mg/kg/injection, schedule: Q01DX005 (ip), vehicle: DMSO): 109 % of control and 110 % of control | T/C (dose: 4.0 mg/kg/injection, schedule: Q01DX005 (ip), vehicle: DMSO): 105 % of control | T/C (dose: 8.0 mg/kg/injection, schedule: Q01DX005 (ip), vehicle: DMSO): 101 % of control and 104 % of control | T/C (dose: 16.0 mg/kg/injection, schedule: Q01DX005 (ip), vehicle: DMSO): 111 % of control | T/C (dose: 32.0 mg/kg/injection, schedule: Q01DX005 (ip), vehicle: DMSO): 108 % of control

NC(=O)CCC1CC(=O)c2ccccc2C1 (configuration not stated)
T/C (dose: 100.0 mg/kg/injection, schedule: Q01DX001 (ip), vehicle: Klucel (hydroxypropylcellulose) (HPC)): 94 % of control | T/C (dose: 200.0 mg/kg/injection, schedule: Q01DX001 (ip), vehicle: Klucel (hydroxypropylcellulose) (HPC)): 108 % of control | T/C (dose: 400.0 mg/kg/injection, schedule: Q01DX001 (ip), vehicle: Klucel (hydroxypropylcellulose) (HPC)): 92 % of control

COc1cccc2c1C(=O)c1c(O)c3c(c(O)c1C2=O)C[C@@](O)(C(=O)CO)C[C@@H]3OC1CC(N2CCOCC2)C(O)C(C)O1 (some centres not stated)
T/C (dose: 5.0 micrograms/kg/injection, schedule: Q04DX003 (ip), vehicle: water): 102 % of control | T/C (dose: 10.0 micrograms/kg/injection, schedule: Q04DX003 (ip), vehicle: water): 107 % of control | T/C (dose: 20.0 micrograms/kg/injection, schedule: Q04DX003 (ip), vehicle: water): 106 % of control | T/C (dose: 22.0 micrograms/kg/injection, schedule: Q04DX003 (iv), vehicle: saline + alcohol): 153 % of control | T/C (dose: 31.25 micrograms/kg/injection, schedule: Q04DX003 (ip), vehicle: water): 106 % of control | T/C (dose: 33.0 micrograms/kg/injection, schedule: Q04DX003 (iv), vehicle: saline + alcohol): 180 % of control | T/C (dose: 40.0 micrograms/kg/injection, schedule: Q04DX003 (ip), vehicle: water): 104 % of control | T/C (dose: 50.0 micrograms/kg/injection, schedule: Q04DX003 (iv), vehicle: saline + alcohol): 173 % of control | T/C (dose: 62.5 micrograms/kg/injection, schedule: Q04DX003 (ip), vehicle: water): 100 % of control | T/C (dose: 75.0 micrograms/kg/injection, schedule: Q04DX003 (iv), vehicle: saline + alcohol): 113 % of control | T/C (dose: 125.0 micrograms/kg/injection, schedule: Q04DX003 (ip), vehicle: water): 111 % of control | T/C (dose: 250.0 micrograms/kg/injection, schedule: Q04DX003 (ip), vehicle: water): 110 % of control | T/C (dose: 500.0 micrograms/kg/injection, schedule: Q04DX003 (ip), vehicle: water): 99 % of control

N=C(N)c1ccc2cc(/C=C/c3cc4ccc(C(=N)N)cc4o3)[nH]c2c1
T/C [15]: 157 % of control | T/C (dose: 50.0 mg/kg/injection, schedule: Q04DX003 (ip), vehicle: suspension in saline): 208 % of control

O=[N+]([O-])c1cc([N+](=O)[O-])c(N2CC2)cc1C1=NCCO1
T/C [1]: 98 % of control | T/C [2]: 110 % of control

S=C(S)N1CCOCC1
T/C [15]: 100 % of control | T/C [16]: 100 % of control | T/C (dose: 200.0 mg/kg/injection, schedule: Q04DX003 (ip), vehicle: saline): 100 % of control

[Cl][Ge]([c]1ccccc1)[c]1ccccc1.[Cl][Ge]([c]1ccccc1)[c]1ccccc1
T/C (dose: 3.12 mg/kg/injection, schedule: Q01DX005 (ip), vehicle: Klucel (hydroxypropylcellulose) (HPC)): 111 % of control | T/C (dose: 6.25 mg/kg/injection, schedule: Q01DX005 (ip), vehicle: Klucel (hydroxypropylcellulose) (HPC)): 116 % of control | T/C (dose: 12.5 mg/kg/injection, schedule: Q01DX005 (ip), vehicle: Klucel (hydroxypropylcellulose) (HPC)): 106 % of control

CCC(/C=C/c1ccc(C)cc1)=N\NC(=O)c1ccccc1
T/C [9]: 98 % of control | T/C [10]: 89 % of control | T/C [11]: 90 % of control

CC(C)=CC(C)(O)c1nc2ccccc2s1 (configuration not stated)
T/C (dose: 60.0 mg/kg/injection, schedule: Q01DX005 (ip), vehicle: Klucel (hydroxypropylcellulose) (HPC)): 95 % of control | T/C (dose: 120.0 mg/kg/injection, schedule: Q01DX005 (ip), vehicle: Klucel (hydroxypropylcellulose) (HPC)): 93 % of control | T/C (dose: 240.0 mg/kg/injection, schedule: Q01DX005 (ip), vehicle: Klucel (hydroxypropylcellulose) (HPC)): 96 % of control

N=C(N)c1nn(C2OC(CO)C(O)C2O)c2nc[nH]c(=O)c12 (configuration not stated)
T/C [12]: 121 % of control | T/C [13]: 124 % of control

CC(/C=N/N=C(N)N)=N/N=C(N)N
T/C (dose: 25.0 mg/kg/injection, schedule: Q01DX009 (ip), vehicle: saline): 120 % of control | T/C (dose: 25.0 mg/kg/injection, schedule: Q04DX003 (ip), vehicle: saline): 100 % of control | T/C [17]: 150 % of control | T/C [15]: 100 % of control | T/C (dose: 75.0 mg/kg/injection, schedule: Q01DX009 (ip), vehicle: saline): 170 % of control | T/C [5]: 86 % of control

COc1ccc(C2=CC(c3ccc(OC)cc3)(c3ccc(C(F)(F)F)cc3)C=C(c3ccc(OC)cc3)S2)cc1
T/C [1]: 97 % of control | T/C [2]: 93 % of control | T/C [3]: 90 % of control

COc1ccc(/C=C/C(C)=N/NC(N)=S)cc1OC
T/C [12]: 104 % of control | T/C [13]: 106 % of control | T/C [14]: 105 % of control and 112 % of control | T/C [18]: 93 % of control

C[n+]1cccc2ccccc21
T/C [16]: 109 % of control

CC(C)C(NC(=O)OC(C)(C)C)C(=O)NC(CC(=O)OCc1ccccc1)C(=O)OCc1ccccc1 (configuration not stated)
T/C [18]: 88 % of control | T/C [19]: 91 % of control | T/C (dose: 400.0 mg/kg/injection, schedule: Q01DX005 (ip), vehicle: saline with Tween-80): 88 % of control

C=C(C)CC1(CCCCCCCCCC)C(=O)NC(=O)NC1=O
T/C (dose: 50.0 mg/kg/injection, schedule: Q04DX003 (ip), vehicle: saline with Tween-80): 105 % of control | T/C (dose: 100.0 mg/kg/injection, schedule: Q04DX003 (ip), vehicle: saline with Tween-80): 102 % of control | T/C (dose: 200.0 mg/kg/injection, schedule: Q04DX003 (ip), vehicle: saline with Tween-80): 93 % of control

COc1ccc(S(=O)(=O)OCCCl)cc1
T/C [4]: 100 % of control | T/C [5]: 97 % of control | T/C [6]: 100 % of control

COc1ccc(CN2CCCN(Cc3ccc(OC)cc3)P2(=O)Nc2ccc(OC)cc2)cc1
T/C [14]: 97 % of control | T/C [18]: 100 % of control | T/C [19]: 100 % of control

CC1(C)CCCC2C1=NOC2O (configuration not stated)
T/C [17]: 100 % of control | T/C (dose: 100.0 mg/kg/injection, schedule: Q01DX009 (ip), vehicle: saline): 96 % of control | T/C (dose: 200.0 mg/kg/injection, schedule: Q01DX009 (ip), vehicle: saline): 100 % of control
